# US8178512B2, “Methods and compositions for treating diseases and disorders associated with siglec-8” (Johns Hopkins University, priority 2004, dated 2012)
# “And” between values parts separate entries of the source, which are not always exact repeats. Equal entries are not always repeated. “Also recorded” adds a separate entry of the source. Where two headings read alike, the source gives them in different places.
# Columns and labels:
# [1] = target: T1, Siglec-8-Ig fusion protein (Homo sapiens, UniProt Q9NYZ4); test: Glycan array screening: Siglec-8-Ig binding to biotinylated glycosides on streptavidin-coated 384-well plates; settings: 172 structures screened
# T1 construct: The extracellular domain of Siglec-8 was inserted in frame with a Factor Xa cleavage site and the Fc portion of human IgG1; made in house; host or cells: CHOEA1 cells (electroporated), purified from supernatants on Protein A Sepharose
# T1 sequence (Q9NYZ4 17-363 limits assumed): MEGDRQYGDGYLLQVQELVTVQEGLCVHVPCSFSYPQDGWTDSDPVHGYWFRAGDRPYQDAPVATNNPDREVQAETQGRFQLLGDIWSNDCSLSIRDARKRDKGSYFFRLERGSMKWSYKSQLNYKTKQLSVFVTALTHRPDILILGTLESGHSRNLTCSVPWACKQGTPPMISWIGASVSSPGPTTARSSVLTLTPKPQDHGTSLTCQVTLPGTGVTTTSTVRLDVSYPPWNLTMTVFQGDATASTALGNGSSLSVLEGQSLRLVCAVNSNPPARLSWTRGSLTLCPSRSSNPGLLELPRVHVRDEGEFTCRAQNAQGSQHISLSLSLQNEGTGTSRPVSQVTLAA
# Procedure: (§1) The extracellular domain of Siglec-8 was inserted in frame with a Factor Xa cleavage site and the Fc portion of human IgG1, expanded in electroporated CHOEA1 cells, and then purified from supernatants (final concentration: 2.4 mg/ml) using Protein A Sepharose as previously described (Kikly, K. K., Bochner, B. S., Freeman, S., Tan, K. B., Gallagher, K. T., D'Alessio, K., Holmes, S. D., Abrahamson, J., Hopson, C. B., Fischer, E. I., Erickson-Miller, C. L., Tachimoto, H., Schleimer, R. P., and White, J. R. (2000) J. Allergy Clin. Immunol. 105, 1093-1100).
# Biotinylated glycosides (Korchagina, E., and Bovina, N. V. (1992) Bioorg Khim 18, 283-298) were coated in replicates of n=3 or n=4 on streptavidin-coated microtiter plates (Pierce Reacti-Bind™ NeutrAvidin™ Coated High Binding Capacity Black 384-Well Plates, Product #15513, Rockford, Ill.). Each well was incubated overnight at 4° C. with 30 pmol/well of glycoside in 25 ul phosphate buffered saline (PBS), pH 7.4. The plates were washed three times with 100 ul PBS using an automated plate washer (Molecular Devices, Sunnyvale, Calif.) and stored sealed at 4° C. in 25 ul/well PBS with 0.1% azide until use. Prior to assay, the plates were washed three times with 100 ul/well wash buffer (20 mM Tris-HCl pH 7.4, 150 mM NaCl, 2 mM CaCl2, 2 mM MgCl2 and 0.05% Tween 20). A stock solution of Siglec-8-Ig (30 ug/ml) was added to each well in 25 ul binding buffer (wash buffer plus 1% BSA) and incubated at room temperature for one hour. The plates were washed three times with 100 ul/well wash buffer and incubated for one hour with 25 ul/well goat anti-human IgG-Alexa 488 (Molecular Probes, Cat. No. A11013, Eugene, Oreg.) at 5 ug/ml in binding buffer. The plates were washed and read in 25 ul wash buffer on a Victor 2™ 1420 Multilabel Counter (PerkinElmer Life Sciences, Fremont, Calif.) at excitation 485/emission 535. The current version of the Consortium glycan array can be viewed at:
# (http://www.functionalglycomics.org/static/consortium/resources/resourcecoreh.shtml), experiments were initiated to identify compounds that selectively and specifically bind to Siglec-8. Using Siglec-8-Ig fusion protein, a panel of 172 carbohydrate-based structures (see Table 1) was screened for specific Siglec-8 binding. […] The spacer arm itself, —O(CH2)3NH—CO(CH2)5NH-Biotin, found on many of the other non-binding structures, cannot explain the binding activity for Siglec-8.
# Siglec-8-Ig [2] = target: T2, Siglec-8-Ig (Homo sapiens, UniProt Q9NYZ4); test: Siglec-8-Ig binding affinity by surface plasmon resonance (SPR), biotinylated glycosides on streptavidin sensor chip; settings: for Siglec-8-Ig binding by SPR (in words): LacNAc reference surface; for Siglec-8-Ig binding by SPR (in words) / Kd: SPR; for Kd: 25° C., equilibrium binding, Siglec-8-Ig 0.1-18 uM, read-out: dissociation constant (Kd) of Siglec-8-Ig binding
# T2 construct: The extracellular domain of Siglec-8 was inserted in frame with a Factor Xa cleavage site and the Fc portion of human IgG1; made in house; host or cells: CHOEA1 cells (electroporated), purified from supernatants on Protein A Sepharose
# T2 sequence (Q9NYZ4 17-363 limits assumed): as above
# Procedure: as §1
# All SPR experiments were performed at 25° C. on a Biacore 3000 instrument (Biacore Inc., Piscataway, N.J.). Biotinylated glycosides were captured on research grade streptavidin (SA) coated sensor chips (Sensor Chip SA, Biacore) that were pre-treated according to the manufacturer's instructions. A solution of each biotinylated glycoside (10 fmol/μl) was injected at 2 μl/min in PBS (pH 7.4) containing 0.005% Tween-20 (running buffer) for varying lengths of time (3-7 minutes) until an optimal amount of glycan was captured on each independent surface. Three related glycosides were studied using one SA sensor chip. […] Increasing concentrations of Siglec-8-Ig (0.1-18 uM) were injected at a flow rate of 60 μl/min over all four surfaces of the sensor chip. […] The equilibrium binding data of Siglec-8-Ig were analyzed by non-linear curve fitting using the BIAevaluation software (Biacore Inc.).
# The binding affinities of Siglec-8 for #108, #182 and #181 (FIGS. 3A-C, respectively) were determined on a Biacore B3000 instrument using a streptavidin-coated sensor chip. LacNAc glycoside was captured on one surface of the sensor chip and used as negative control (data not shown).
# Siglec-8-Ig [3] = target: T2, Siglec-8-Ig; test: Binding of Siglec-8-Ig to aminoalkyl glycosides immobilized on activated (N-hydroxysuccinimidyl) glass surfaces; settings: highest concentration tested 300 pmol/spot
# Text: A description of the printing and evaluation of the full array in this format has been submitted elsewhere (Ola Blixt, Steve Head, Tony Mondala, Christopher Scanlan, Margaret E. Huflejt, Richard Alvarez, Marian C. Bryan, Fabio Fazio, Daniel Calarese, James Stevens, Nahid Razi, David J. Stevens, John J. Skehel, Irma van Die, Dennis Burton, Ian A. Wilson, Richard Cummings, Nicolai Bovin, Chi-Huey Wong, and James C. Paulson ([…]) Proc. Natl. Acad. Sci. USA 101, 17033-17038). FITC-labeled goat anti-human IgG (Fc specific) was from Jackson Immunoresearch (West Grove, Pa.). […]
# A solution of 100 μg/ml Siglec-8-Ig and 50 μg/ml FITC-labeled goat anti-human IgG (Fc-specific) in Dulbecco's PBS containing 0.005% Tween 20 was incubated for 30 min at 37° C. to allow complexes to form. […] An image of the bound fluorescence was obtaining using a microarray scanner (ScanArray Express, PerkinElmer Life Sciences, Boston, Mass.). The integrated spot intensities were determined using Metamorph software (Universal Imaging, Downingtown, Pa.). […]
# Siglec-F = target: T3, Siglec-F (Mus musculus, UniProt Q920G3); settings: Consortium website; cited from earlier work
# T3 sequence (Q920G3 17-569): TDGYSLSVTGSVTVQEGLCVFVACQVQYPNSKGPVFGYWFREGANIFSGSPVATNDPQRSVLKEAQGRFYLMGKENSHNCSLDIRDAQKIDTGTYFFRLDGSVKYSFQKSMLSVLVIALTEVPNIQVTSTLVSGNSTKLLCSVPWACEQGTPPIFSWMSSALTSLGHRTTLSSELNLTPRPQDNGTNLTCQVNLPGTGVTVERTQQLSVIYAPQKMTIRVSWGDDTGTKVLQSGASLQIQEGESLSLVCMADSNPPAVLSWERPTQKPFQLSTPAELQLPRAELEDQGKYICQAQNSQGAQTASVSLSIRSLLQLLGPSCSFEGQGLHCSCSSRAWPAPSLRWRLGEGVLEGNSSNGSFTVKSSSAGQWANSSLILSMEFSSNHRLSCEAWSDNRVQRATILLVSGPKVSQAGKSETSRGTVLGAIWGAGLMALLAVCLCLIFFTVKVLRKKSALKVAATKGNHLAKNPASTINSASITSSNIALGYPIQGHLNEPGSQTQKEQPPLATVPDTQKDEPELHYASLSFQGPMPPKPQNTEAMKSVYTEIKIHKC
# [4] = tested on: Siglec-G-Ig fusion protein; settings: Consortium website; cited from earlier work
molecule,measurement,setting,value
"CC(=O)N[C@H]1[C@H](OCCCNC(=O)CCCCCNC(=O)CCCC[C@@H]2SC[C@@H]3NC(=O)N[C@@H]32)O[C@H](COS(=O)(=O)O)[C@@H](O[C@@H]2O[C@H](CO)[C@H](O)[C@H](O[C@]3(C(=O)O)C[C@H](O)[C@@H](NC(C)=O)[C@H]([C@H](O)[C@H](O)CO)O3)[C@H]2O)[C@@H]1O[C@@H]1O[C@@H](C)[C@@H](O)[C@@H](O)[C@@H]1O [#182, NeuAcα2-3Galβ1-4(Fucα1-3)(6-O-Su)GlcNAcβ1-O(CH2)3NH—CO(CH2)5NH-Biotin]",Siglec-8-Ig binding in glycan array (in words),[1]; listed as 6-sulfo-sLe^x,failed to bind
same,Siglec-8-Ig binding by SPR (in words),Siglec-8-Ig [2]; listed as 6-sulfo-sLe^x,failed to support detectable Siglec-8 binding; also recorded: No binding
same,Siglec-8 binding to glycan immobilized on glass slide (in words),Siglec-8-Ig [3],did not support any Siglec-8 binding
"Galβ1-4GlcNAc [LacNAc, reference compound]",Siglec-8-Ig binding by SPR (in words),Siglec-8-Ig [2],non-binding
"CC(=O)N[C@H]1[C@H](OCCCNC(=O)CCCCCNC(=O)CCCC[C@@H]2SC[C@@H]3NC(=O)N[C@@H]32)O[C@H](CO)[C@@H](O[C@@H]2O[C@H](COS(=O)(=O)O)[C@H](O)[C@H](O[C@]3(C(=O)O)C[C@H](O)[C@@H](NC(C)=O)[C@H]([C@H](O)[C@H](O)CO)O3)[C@H]2O)[C@@H]1O[C@@H]1O[C@@H](C)[C@@H](O)[C@@H](O)[C@@H]1O [#181, NeuAcα2-3(6-O-sulfo)Galβ1-4(Fucα1-3)GlcNAcβ1-O(CH2)3NH—CO(CH2)5NH-Biotin]",binding to Siglec-F (in words),Siglec-F,selectively binds
same,Siglec-8-Ig binding in glycan array (in words),[1],stands out among all the others for binding activity; also recorded: By far the greatest binding
same,Siglec-8-Ig binding in glycan array (in words),[1]; listed as 6′-sulfo-sLe^x,avid binding
same,association and dissociation profiles (in words),Siglec-8-Ig [2]; SPR sensorgrams,very fast association and dissociation profiles
same,Kd,Siglec-8-Ig [2]; listed as 6′-sulfo-sLe^x,2.3 µM and 2.2 to 2.3 µM
same,Kd,Siglec-8-Ig [2],2 to 2.5 µM
same,Siglec-8-Ig binding by SPR (in words),Siglec-8-Ig [2],specific binding
same,Siglec-8-Ig binding by SPR (in words),Siglec-8-Ig [2]; listed as 6′-sulfo-sLe^x,significant binding; also recorded: reproducible binding
same,binding to Siglec-G-Ig fusion protein (in words),[4],failed to show specific binding
"CC(=O)N[C@H]1[C@H](OCCNC(=O)CCCCCNC(=O)CCCCCNC(=O)CCCC[C@@H]2SC[C@@H]3NC(=O)N[C@@H]32)O[C@H](CO)[C@@H](O[C@@H]2O[C@H](CO)[C@H](O)[C@H](O[C@]3(C(=O)O)C[C@H](O)[C@@H](NC(C)=O)[C@H]([C@H](O)[C@H](O)CO)O3)[C@H]2O)[C@@H]1O[C@@H]1O[C@@H](C)[C@@H](O)[C@@H](O)[C@@H]1O [#108, NeuAcα2-3Galβ1-4(Fucα1-3)GlcNAcβ1-O(CH2)2NHCO(CH2)5NHCO(CH2)5NH-Biotin]",Siglec-8-Ig binding in glycan array (in words),[1]; listed as sLe^x,failed to bind
same,Siglec-8-Ig binding by SPR (in words),Siglec-8-Ig [2]; listed as sLe^x,failed to support detectable Siglec-8 binding; also recorded: No binding
same,Siglec-8 binding to glycan immobilized on glass slide (in words),Siglec-8-Ig [3],did not support any Siglec-8 binding
